Results as given in patent US6710051B1, “Screening method” (Klaus Trier APS, priority 1997, dated 2004).
Like-named read-outs stand apart in the source and are kept apart here. Marks after values point to notes of the source that are not given here.

How the values were obtained:
sclera [1] = experiment: Content of collagen specific amino acids in rabbit sclera after long term treatment (HPLC); assay type: in vivo; design: Hydroxylysine Decr. compared to the control / Hydroxyproline Inc. compared to the control / Proline Inc. compared to the control: concentration or dose not given beside the values; conditions: for Hydroxylysine content / Hydroxyproline content / Proline content: dried defatted weight
Source text: (§1) Test animal: Charles River Deutschland Chinchilla Bastard female rabbits.
(§2) Number of animals: 6 test animals and 6 control animals
(§3) Age: approximately 8 weeks at the commencement of the test.
(§4) Weight: 1.4-1.9 kg at the commencement of the test.
(§5) Cages: The animals live in identical cages made of stainless steel (Scanbur), length 1 m, depth 0.52 m, height 0.5 m.
(§6) Amount of food: Increasing from 75 g per day at the commencement of the test up to 130 g after three months.
(§7) Experimental drinking water 1 contained theophyllin in a dose equivalent of 27 mg increasing to 63 mg (added as theophyllin and ethylendiamin in a dose of 33 to 77 mg) daily.
(§8) Experimental drinking water 2 contained fluoxetine (Fontex, Lilly) in a dose equivalent of 2 mg increasing to 5 mg daily.
(§9) Experimental diet 3 was added 7-methylxanthine 500 mg per kg Stanrab standard diet equivalent of a daily 7-methylxanthine dose of […] per day.
(§10) Experimental diet 4 was added theobromine (3,7-dimethylxanthine) 500 mg per kg Stanrab standard diet equivalent of a daily theobromine dose of […] per day.
(§11) Experimental diet 5 was added acetazolamide 500 mg per kg Stanrab standard diet equivalent of a daily acetazolamide dose of […] per day.
(§12) Collection of sample: Sclera biopsies are taken for analysis for proteoglycane content, distribution between the individual glycosaminoglycanes and the content of collagen specific amino acids. Four tests from each animal: Two samples from the front, 5×10 mm along limbus (without cornea), and two samples from the back, punch 10 mm corresponding to the center of the retina. Furthermore, tests are taken for electron microscopy (EM) from two animals in each group.
Samples for analysis for content of collagen specific amino acids are frozen down immediately. The amino acid content is determined by HPLC-chromatography.
The dried tissue with constant weight is minced into very fine particles with a pair of scissors, approximately 20 per piece of tissue. The small flakes from each original piece of tissue ate divided into two equally sized portions, one of which is employed for hydrolysis and the other one is kept for reference. The constant dry weight of each portion is known.
From each resolubilized hydrolysate 3 aliquots of each 8 microliters and 3 aliquots of 40 μl are taken and transferred to separate polypropylene tubes in which 20 microliters of a solution of internal standard substances citrulline and 2 aminobutyric acid were added where the further method takes place.
The taken aliquots from hydrolysate are dried in a vacuum exsiccator at 35° C. over night and subsequently submitted to derivatization with phenylisothiocyanate.
The resulting phenylisothiocarbamates are transferred to the HPLC instrument for separation and quantification. A new set of calibration curves is established, 1 curve for each of the 19 amino acids, prior to the analysis of the samples from one investigation.
The concentration range of standard samples exceed the ranges of amino acid concentrations in the unknowns. Hydroxyproline and proline are quantitated from the 8 microliter aliquots, and hydroxylysine is quantitated from the 40 microliter aliquots.

sclera [2] = experiment: Content of proteoglycanes in rabbit sclera after long term treatment (alcian blue method); assay type: in vivo; design: Proteoglycanes Decrease compared to the control, anterior sclera / Proteoglycanes Increase compared to the control, anterior sclera / Proteoglycanes Increase compared to the control, posterior sclera / Effect on proteoglycan content of posterior sclera in % compared to control: concentration or dose not given beside the values; conditions: for Effect on proteoglycan content of posterior sclera in % compared to control: rabbit, Examples 2 and 4
Experimental: as §1, §2, §3, §4
Lightness/Darkness cycle: 12/12 hours.
as §5
Food: Stanrab standard diet from Special Diet Services, P.O. Box 705, Witham Essex CM8 3AD, UK (further details, see Table A).
as §6, §7, §8
Experimental diet 2 was added 4.5 g L-cystine per kg Stanrab standard diet equivalent of a daily L-cystine dose of 338 mg increasing to 585 mg per day. With respect to the supplement of L-cystine, the normal intake per day of the standard diet is 218 mg increasing to 377 mg L-cystine.
as §9, §10, §11
Experimental diet 6 was added 4.5 g L-ornithine per kg Stanrab standard diet equivalent of a daily L-ornithine dose of 338 mg increasing to 585 mg per day.
as §12
Analyses: Samples for proteoglycane analysis are frozen down immediately. The samples are analyzed by Wieslab AB, IDEON, S-223 70 Lund, Sweden, by means of a method which has been described by Björnsson, S., Analytical Biochemistry 210, 282-291 (1993). The method comprises extraction by 20 microliters of 4 M guanidine-HCl, 50 Mm sodium acetate per mg wet weight over night by room temperatures. The extracts are centrifuged in order to remove debris. 20 microliters of supernatant are reduced 1/10 in extraction buffer and 20 microliters of reduced supernatant are mixed with 10 microliters of reagent 1 (see Björnsson, S., Analytical biochemistry 210, 282-291 (1993)) on a shaking table for 15 minutes. 200 microliters of reagent 2 are added and the tests are incubated for 60 minutes in order to precipitate the proteoglycanes. The proteoglycane/alcian blue precipitate is transferred to 96-wells MillBlotD apparatus and washed with 2×200 microliters of 40% DMSO, 0.05 M of MgCl2. The colour intensity of the wells are quantitated by microtech E3 scanner and Scan Analysis software (Biosoft, Cambridge, U.K.). Chrondroitine-6-sulphate (Sigma C4384) is used as the calibrator. All samples are analyzed in duplicate.
The results of longterm treatment with each of the 8 substances specified above are shown in Example 2 (treatment for 12 weeks) and Example 4 (treatment for 10 weeks).

[3] = humans; cited from earlier work
[4] = rabbits; cited from earlier work
[5] = tested on: retinal pigment epithelium; experiment: c-wave at ERG and standing potential of the eye; conditions: in vivo
Source text: Registration of c-Wave at ERG in animals (e.g. rabbits) is a well-developed examination technique (Skoog, K. O., Nilsson, S. E. G., Acta Ophthalmol. (Kph), 52: 759-773 (1974), Jarkman, S., Skoog, K. O., Doc. Ophthalmol., 60: 383-392 (1985)). Also intraoccular administration of test substances for test animals is also a well-described-technique (Textorius O., Doc. Ophthalmol., 63:349-358 (1986)). Alternatively, test substances can be administered intravenously (Jarkman, S., Doc. Ophthalmol. 60: 375-382 (1985)).

eye [6] = conditions: test animals exposed to visual deprivation; cited from earlier work
eye [7] = conditions: animal, abnormal postnatal growth of the eye; cited from earlier work
[8] = anterior sclera, 3 months treatment
[9] = posterior sclera, 3 months treatment

Cn1c(=O)c2c(ncn2C)n(C)c1=O [Caffeine, 1,3,7-Trimethylxanthine]
Hydroxyproline Inc. compared to the control (sclera [1]; [8]): 14% | Proline Inc. compared to the control (sclera [1]; [8]): 12% | Hydroxylysine content (sclera [1]; [8]): 39 +/− 19 nanomol/mg tissue | Hydroxyproline content (sclera [1]; [8]): 688 +/− 36* nanomol/mg tissue | Proline content (sclera [1]; [8]): 993 +/− 18* nanomol/mg tissue | Hydroxylysine Decr. compared to the control (sclera [1]; [9]): 14% | Hydroxyproline Inc. compared to the control (sclera [1]; [9]): 22% | Proline Inc. compared to the control (sclera [1]; [9]): 17% | Hydroxylysine content (sclera [1]; [9]): 37 +/− 16 nanomol/mg tissue | Hydroxyproline content (sclera [1]; [9]): 668 +/− 61 nanomol/mg tissue | Proline content (sclera [1]; [9]): 947 +/− 38 nanomol/mg tissue | Proteoglycanes Increase compared to the control, anterior sclera (sclera [2]; 3 months treatment): 19% | Proteoglycanes Increase compared to the control, posterior sclera (sclera [2]; 3 months treatment): 19% | Effect on proteoglycan content of posterior sclera in % compared to control (sclera [2]): 119% | Content of proteoglycanes, anterior sclera (sclera [2]; wet weight, 3 months treatment): 3.2 +/− 0.8 μg PG/mg tissue | Content of proteoglycanes, posterior sclera (sclera [2]; wet weight, 3 months treatment): 3.2 +/− 0.5 μg PG/mg tissue | half-life period [3]: approximately 5 hours | half-life period [4]: approximately 1 hour

Cn1c(=O)c2[nH]cnc2n(C)c1=O [Theophylline, 1,3-Dimethylxanthine]
content of hydroxylysine (in words) (sclera [1]; comment to the examples): reduces | content of the collagen specific amino acids hydroxyproline and proline (in words) (sclera [1]; comment to the examples): increase | content of proteoglycanes in sclera (in words) (sclera [2]; comment to the examples): reduces | Effect on proteoglycan content of posterior sclera in % compared to control (sclera [2]): 100% | c-wave at ERG [5]: reduces | standing potential of the eye [5]: reduces

CN1CCc2cccc3c2[C@H]1Cc1ccc(O)c(O)c1-3 [apomorphine]
development of myopia (eye [6]): inhibits

CN1CCN(CC(=O)N2c3ccccc3C(=O)Nc3cccnc32)CC1 [pirenzepine]
axial longitudinal growth (eye [7]): inhibited
